Measured values published in patent US20050215548A1 (Cyclacel Limited, priority 2002, published 2005).
Read-outs that look alike come from different tables or passages of the source.

Legend:
HDM2 = target: T1, HDM2 (Homo sapiens, UniProt Q00987); assay: Fluorescence polarisation competitive HDM2 binding assay
T1 construct: Recombinant HDM2 (1.5 μg per well) in TBS-BSA buffer
Outline: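 Recombinant HDM2 (1.5 μg/well) was preincubated 5 min at room temperature with serially diluted compound in 50 mM Tris pH 7.4, 150 mM NaCl, 0.1% BSA, 5% DMSO final. Fluorescein-labelled p53 peptide (0.2 μM) was then added for 45 min. Polarisation was read at 485/520 nm and IC50 derived from dose-response curves.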

[1] = test system: E2F transcription factors; assay: E2F reporter gene assay (A549-derived luciferase reporter cell line); assay type: cell-based; conditions: Homo sapiens
Method: A similar system to the p53 reporter assay described above was used, with the exception that it was designed to be responsive to E2F transcription factors rather than p53. An A549-derived cell line stably transfected with an E2F response element and a luciferase reporter gene was created. The genetic expression cassette construct used was from Clontech (Mercury™ Cell Cycle Profiling System). Assays were carried out as described above.
Representative bisarylsulfonamides were tested in the E2F gene reporter assay described in Example 6.

p53 = p53 reporter gene assay (U2OS-derived luciferase reporter cell line); conditions: for Fold induction of luciferase activity: compared to basal luciferase activity, 16-h time point, at concentration of maximal induction; for Concentration (test compound concentration at which the p53 induction was maximal): p53 reporter, U2OS-derived cell line
Method: A dual assay assessing both cell viability and p53 response was employed. A U2OS-derived cell line stably transfected with a p53 response element and a luciferase reporter gene was created. […] After seeding of cells into 96-well tissue culture plates, treatment with test compounds, and incubation for the desired duration, the cell proliferation reagent WST-1 (Roche Molecular Biochemicals) was used to determine cell viability. The Bright-Glo™ Luciferase Assay System (Promega) was used to measure luciferase activity. The data from the cell viability assay was used to normalise data from the luciferase assay.

AGS = assay: 72-h MTT cytotoxicity assay, AGS; assay type: cell-based; conditions: Homo sapiens, 72-h MTT, Table 1, read-out: IC50 Anti-proliferative effect on cell line AGS
Method: (§1) The fluorescence polarisation competitive HDM2 binding assay described in Example 3 was used. Furthermore, the anti-proliferative potency of the compounds against three human tumour cell lines with different genetic make-up was also determined. […] The cell lines used were as follows: AGS, gastric adenocarcinoma, wild-type p53; H1299, large cell lung carcinoma, p53 null, low HDM2; SJSA-1, primitive multipotential bone sarcoma, wild-type p53, overexpressed HDM2.
(§2) Representative bisarylsulfonamide compounds were tested on a panel of transformed and non-transformed human cell lines, using a standard 72-h MTT cytotoxicity assay [Haselsberger K et al, ibid].

H1299 = assay: 72-h MTT cytotoxicity assay, H1299; assay type: cell-based; conditions: Homo sapiens, NCI-H1299; 72-h MTT; Table 1; read-out: IC50 Anti-proliferative effect on cell line H 1299
Method: as §1, §2

SJSA-1 = assay: 72-h MTT cytotoxicity assay, SJSA-1; assay type: cell-based; conditions: Homo sapiens, SJSA-1; 72-h MTT; Table 1; read-out: IC50 Anti-proliferative effect on cell line SJSA-1
Method: as §1, §2

[2] = fluorescence polarisation assay, Table 3, read-out: In vitro competitive HDM2 binding assay IC50
[3] = fluorescence polarisation format, Table 1, read-out: IC50 In vitro competitive HDM2 binding assay
[4] = after 3-h treatment with test compounds, read-out: IC50 E2F reporter, Non-synchronised cells
[5] = after 3-h treatment, synchronisation with 0.3 mM mimosine for 24 h, followed by wash-out, read-out: IC50 E2F reporter, Synchronised cells

T1 sequence (Q00987 whole entry): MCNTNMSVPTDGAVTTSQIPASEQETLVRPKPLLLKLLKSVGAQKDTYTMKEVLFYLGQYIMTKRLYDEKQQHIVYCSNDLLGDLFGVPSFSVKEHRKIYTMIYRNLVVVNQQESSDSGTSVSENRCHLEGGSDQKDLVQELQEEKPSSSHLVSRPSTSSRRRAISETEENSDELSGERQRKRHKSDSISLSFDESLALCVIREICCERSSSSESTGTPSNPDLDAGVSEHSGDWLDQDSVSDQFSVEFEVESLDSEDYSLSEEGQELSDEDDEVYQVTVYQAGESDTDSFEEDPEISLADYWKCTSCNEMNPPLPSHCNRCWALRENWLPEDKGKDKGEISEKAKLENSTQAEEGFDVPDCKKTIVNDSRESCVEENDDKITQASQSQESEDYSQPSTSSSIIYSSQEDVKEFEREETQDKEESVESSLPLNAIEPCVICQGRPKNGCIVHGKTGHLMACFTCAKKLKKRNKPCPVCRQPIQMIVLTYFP

SMILES	IC50 (HDM2; [2])	IC50 (HDM2; [3])	IC50 [1, 4]	Fold induction of luciferase activity (p53)	IC50 [1, 5]	Concentration (test compound concentration at which the p53 induction was maximal) (p53)	IC50 (AGS)	IC50 (H1299)	IC50 (SJSA-1)
O=[N+]([O-])c1cc(S(=O)(=O)Nc2ccc(O)cc2)sc1Cl [Compound 5, 5-Chloro-4-nitrothiophene-2-sulfonic acid (4-hydroxyphenyl)amide]	–	105 ± 26 µM	73.3 ± 33.4 µM	–	72 ± 31 µM	–	2.2 ± 0.6 µM	8.7 ± 2.2 µM	24 ± 2.1 µM
O=[N+]([O-])c1cc(S(=O)(=O)Nc2ccc(Cl)cc2)ccc1Cl [Compound 38, 4-Chloro-N-(4-chlorophenyl)-3-nitro-benzenesulfonamide]	231 ± 13 µM	232 ± 13 µM	–	4 fold	–	13 µM	16 ± 4 µM	11 ± 4 µM	22 ± 4 µM
O=S(=O)(Nc1ccc(C(F)(F)F)cc1)c1cnc(Cl)c(Br)c1 [Compound 41, 5-Bromo-6-chloropyridine-3-sulfonic acid (4-trifluoromethylphenyl)amide]	–	258 ± 12 µM	76.6 µM	–	84 µM	–	31 ± 2 µM	28 µM	53 ± 3 µM
O=[N+]([O-])c1cc(S(=O)(=O)Nc2cc(Cl)cc(Cl)c2)sc1Cl [Compound 39, 5-Chloro-4-nitrothiophene-2-sulfonic acid (3,5-dichlorophenyl)-amide]	46.1 ± 3.4 µM	46.1 ± 3.4 µM	90 µM	64 fold	–	15 µM	4.9 ± 1.6 µM	12.1 ± 4 µM	27.2 ± 0.4 µM
O=[N+]([O-])c1cc(S(=O)(=O)Nc2nc3ccccc3[nH]2)ccc1Cl [Compound 83, N-(1H-Benzoimidazol-2-yl)-4-chloro-3-nitro-benzenesulfonamide]	119 ± 42.5 µM	119 ± 43 µM	29.4 ± 6 µM	10 fold	–	5 µM	0.9 ± 0.1 µM	1.4 ± 0.2 µM	2.3 ± 0.9 µM
COc1ccc(NS(=O)(=O)c2cc([N+](=O)[O-])c(Cl)s2)cc1 [Compound 61, 5-Chloro-4-nitro-thiophene-2-sulfonic acid (4-methoxy-phenyl)-amide]	45 ± 14 µM	45 ± 14 µM	34.6 ± 22.9 µM	34 fold	–	4.8 µM	1.8 ± 0.4 µM	2.7 ± 0.4 µM	2.8 ± 0.2 µM
Cc1ccc(NS(=O)(=O)c2cc([N+](=O)[O-])c(Cl)s2)cc1 [Compound 63, 5-Chloro-4-nitro-thiophene-2-sulfonic acid p-tolylamide]	35 ± 8 µM	35 ± 8 µM	–	95 fold	–	6.4 µM	1.7 ± 0.6 µM	3.9 ± 0.9 µM	5.7 ± 1.6 µM
O=[N+]([O-])c1cc(S(=O)(=O)Nc2cc(F)cc(F)c2)sc1Cl [Compound 40, 5-Chloro-4-nitrothiophene-2-sulfonic acid (3,5-difluorophenyl)-amide]	59.6 ± 10.9 µM	59.6 ± 10.5 µM	99.5 µM	68 fold	–	13 µM	4 ± 0.3 µM	10.6 ± 0.4 µM	26.4 ± 0.2 µM

Stronger by IC50 (HDM2; [3]), values ahead:

IC50 (HDM2; [2])	IC50 (HDM2; [3])	IC50 [1, 4]	Fold induction of luciferase activity (p53)	IC50 [1, 5]	SMILES	Concentration (test compound concentration at which the p53 induction was maximal) (p53)	IC50 (AGS)	IC50 (H1299)	IC50 (SJSA-1)
31.1 ± 5.6 µM	31.1 ± 5.6 µM	–	25 fold	–	CC(NS(=O)(=O)c1cc([N+](=O)[O-])c(Cl)s1)c1ccc(F)cc1 (stereo not shown) [Compound 57, 5-Chloro-4-nitro-thiophene-2-sulfonic acid [1-(4-fluoro-phenyl)-ethyl]-amide]	7 µM	1.7 ± 0.3 µM	2.7 ± 0.6 µM	5.9 ± 0.2 µM
29 ± 6 µM	29 ± 6 µM	29.2 ± 6.8 µM	48 fold	–	O=[N+]([O-])c1cc(S(=O)(=O)NCCc2c[nH]c3cc(Cl)ccc23)sc1Cl [Compound 60, 5-Chloro-4-nitro-thiophene-2-sulfonic acid [2-(6-chloro-1H-indol-3-yl)-ethyl]-amide]	7.5 µM	–	–	–
27 ± 10.1 µM	27 ± 10.1 µM	–	53 fold	–	O=[N+]([O-])c1cc(S(=O)(=O)NCc2cc(F)cc(F)c2)sc1Cl [Compound 55, 5-Chloro-4-nitro-thiophene-2-sulfonic acid 3,5-difluoro-benzylamide]	10 µM	7 µM	9.3 ± 2.5 µM	13.3 ± 2.1 µM
25.3 ± 4.6 µM	25.3 ± 4.6 µM	31.3 ± 2.6 µM	43.5 fold	–	O=[N+]([O-])c1cc(S(=O)(=O)NCCc2c[nH]c3ccccc23)sc1Cl [Compound 48, 5-Chloro-4-nitrothiophene-2-sulfonic acid [2-(1H-indol-3-yl)-ethyl]amide]	5.5 µM	2.6 ± 1.4 µM	3.6 ± 0.9 µM	3.1 ± 1 µM
20.2 ± 1.3 µM	20.2 ± 1.3 µM	–	90 fold	–	O=[N+]([O-])c1cc(S(=O)(=O)NCc2cc(Cl)cc(Cl)c2)sc1Cl [Compound 54, 5-Chloro-4-nitro-thiophene-2-sulfonic acid 3,5-dichloro-benzylamide]	10 µM	5.6 ± 0.2 µM	9.7 ± 2.9 µM	12 ± 0.4 µM
–	18 µM	44.6 ± 2.3 µM	–	–	O=[N+]([O-])c1cc(S(=O)(=O)NCc2ccccc2)sc1Cl [Compound 64, 5-Chloro-4-nitro-thiophene-2-sulfonic acid benzylamide]	–	3.6 ± 0.2 µM	6.3 ± 2.1 µM	7.3 ± 1.7 µM
16 ± 3.7 µM	16 ± 3.7 µM	–	67 fold	–	O=[N+]([O-])c1cc(S(=O)(=O)NCc2ccc(F)cc2)sc1Cl [Compound 45, 5-Chloro-4-nitrothiophene-2-sulfonic acid 4-fluorobenzylamide]	15 µM	7.5 ± 4.4 µM	11.1 ± 3.1 µM	11.5 ± 3 µM
14.7 ± 0.9 µM	14.7 ± 0.9 µM	–	65 fold	–	COc1ccc(N(Cc2ccccc2)S(=O)(=O)c2cc([N+](=O)[O-])c(Cl)s2)cc1 [Compound 66, 5-Chloro-4-nitro-thiophene-2-sulfonic acid benzyl-(4-methoxy-phenyl)-amide]	4.2 µM	2.4 ± 0.2 µM	3.9 ± 0.5 µM	3.9 ± 1.3 µM
11.1 ± 1.7 µM	11.1 ± 1.7 µM	25.5 ± 3.1 µM	55 fold	–	O=[N+]([O-])c1cc(S(=O)(=O)NCc2ccc(C(F)(F)F)cc2)sc1Cl [Compound 46, 5-Chloro-4-nitrothiophene-2-sulfonic acid 4-trifluoromethylbenzylamide]	6 µM	1.3 ± 0.5 µM	3.4 ± 0.5 µM	4.4 ± 1.1 µM
7.4 ± 1 µM	7.4 ± 1 µM	–	74 fold	–	O=[N+]([O-])c1cc(S(=O)(=O)N(Cc2ccccc2)c2ccc(Cl)cc2)sc1Cl [Compound 65, 5-Chloro-4-nitro-thiophene-2-sulfonic acid benzyl-(4-chloro-phenyl)-amide]	10 µM	5.2 ± 2.2 µM	10.8 ± 4.3 µM	11.1 ± 6.7 µM
7.3 ± 0.6 µM	7.3 ± 0.6 µM	–	21 fold	–	CN(c1ccc(C(F)(F)F)cc1)S(=O)(=O)c1cc([N+](=O)[O-])c(Cl)s1 [Compound 50, 5-Chloro-4-nitrothiophene-2-sulfonic acid methyl-(4-trifluoromethylphenyl)amide]	39 µM	30.3 ± 0.3 µM	34.7 ± 6.1 µM	35.4 ± 11.5 µM
